How the values were obtained:
[1] = system: brains, heart, liver, muscle, and DRG of the NHPs; experiment: Maturation of TTM-001 and TTM-002 capsids, NGS enrichment in NHP tissues; assay type: in vivo; conditions: relative to AAV9 control
How it was run: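 Variants carry mutations within and flanking the loop IV peptide insert: positions 450–466 were triplet-randomized, while positions 449–466 received low-frequency point mutations. The combined pool went into two NHPs, and each peptide was scored by NGS enrichment ratio against AAV9.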

[2] = system: brain; experiment: Matured TTM-001 and TTM-002 variants, NGS enrichment in mouse brain; assay type: in vivo, mice; conditions: relative to AAV9 control
[3] = NGS fold-enrichment of RNA, NHP brain
[4] = NGS fold-enrichment, NHP liver DNA
[5] = NGS fold-enrichment, NHP liver RNA
[6] = NGS fold-enrichment, NHP muscle
[7] = NGS fold-enrichment, mouse brain
[8] = NGS fold-enrichment, DRG of NHPs
[9] = NGS fold-enrichment, RNA, brain of NHPs
[10] = NGS fold-enrichment, heart of NHPs
[11] = NGS fold-enrichment, liver DNA of NHPs
[12] = NGS fold-enrichment, liver RNA of NHPs
[13] = NGS fold-enrichment, muscle of NHPs
[14] = NGS fold-enrichment, brain of mice
[15] = NGS fold-enrichment of matured AAV capsid variants, NHP brain, RNA

Sequence | Fold Enrichment relative to AAV9, Brain (NHP) [1, 3] | Fold Enrichment relative to AAV9, DRG (NHP) ([1]; NGS fold-enrichment, NHP DRG) | Fold Enrichment relative to AAV9, Heart (NHP) ([1]; NGS fold-enrichment, NHP heart) | Fold Enrichment relative to AAV9, Liver DNA (NHP) [1, 4] | Fold Enrichment relative to AAV9, Liver RNA (NHP) [1, 5] | Fold Enrichment relative to AAV9, Muscle (NHP) [1, 6] | Fold Enrichment relative to AAV9, Brain (Mouse) [2, 7] | Fold Enrichment relative to AAV9, DRG (NHP) [1, 8] | Fold Enrichment relative to AAV9, Brain (NHP) [1, 9] | Fold Enrichment relative to AAV9, Heart (NHP) [1, 10] | Fold Enrichment relative to AAV9, Liver DNA (NHP) [1, 11] | Fold Enrichment relative to AAV9, Liver RNA (NHP) [1, 12] | Fold Enrichment relative to AAV9, Muscle (NHP) [1, 13] | Fold Enrichment relative to AAV9, Brain (Mouse) [2, 14] | Fold Enrichment relative to AAV9, Brain (NHP) [1, 15] | Fold Enrichment relative to AAV9, DRG (NHP) ([1]; NHP DRG) | Fold Enrichment relative to AAV9, Heart (NHP) ([1]; NHP heart) | Fold Enrichment relative to AAV9, Liver DNA (NHP) ([1]; NHP liver, DNA) | Fold Enrichment relative to AAV9, Liver RNA (NHP) ([1]; NHP liver, RNA) | Fold Enrichment relative to AAV9, Muscle (NHP) ([1]; NHP muscle) | further results
KTINGNGSPHSKAQNHQA | 88.274 fold | 0.000 fold | 0.024 fold | 0.041 fold | 0.000 fold | 0.000 fold | 36.754 fold |  |  |  |  |  |  |  |  |  |  |  |  |  | 
KTINGNGSPHSKAQNPLT | 75.269 fold | 0.000 fold | 0.000 fold | 0.000 fold | 0.366 fold | 0.000 fold | 53.583 fold | 0.000 fold | 75.269 fold | 0.000 fold | 0.000 fold | 0.366 fold | 0.000 fold | 53.583 fold |  |  |  |  |  |  | 
KTINGNGSPHSKSQNQHT |  |  |  |  |  |  |  |  |  |  |  |  |  |  | 51.379 fold | 0.000 fold | 0.054 fold | 0.082 fold | 0.000 fold | 0.000 fold | Fold Enrichment relative to AAV9, Brain (Mouse) ([2]; mouse brain): 56.614 fold
KTINGPDSPHKIGQNQQS | 85.726 fold | 0.000 fold | 0.055 fold | 0.063 fold | 0.000 fold | 0.171 fold | 10.055 fold |  |  |  |  |  |  |  |  |  |  |  |  |  | 
KTINGPGSPHSKAHNQQT | 115.742 fold | 0.146 fold | 0.000 fold | 0.513 fold | 0.000 fold | 0.235 fold | 52.508 fold | 0.146 fold | 115.742 fold | 0.000 fold | 0.513 fold | 0.000 fold | 0.235 fold | 52.508 fold |  |  |  |  |  |  | 
KTINGQDSPHKSGQHQQA | 85.657 fold | 1.127 fold | 0.579 fold | 0.557 fold | 0.193 fold | 0.000 fold | 5.582 fold |  |  |  |  |  |  |  |  |  |  |  |  |  | 
KTINGQDSPHKSGQNQDT | 82.075 fold | 0.000 fold | 0.067 fold | 0.144 fold | 0.225 fold | 0.000 fold | 9.626 fold |  |  |  |  |  |  |  |  |  |  |  |  |  | 
KTINGRGSPHKRGQNQQT | 120.889 fold | 0.100 fold | 0.814 fold | 0.614 fold | 0.458 fold | 0.434 fold | 13.988 fold |  |  |  |  |  |  |  |  |  |  |  |  |  | 
KTINGSASPHSKAHSQQT |  |  |  |  |  |  |  |  |  |  |  |  |  |  | 55.293 fold | 0.000 fold | 0.000 fold | 0.166 fold | 0.000 fold | 0.000 fold | Fold Enrichment relative to AAV9, Brain (Mouse) ([2]; mouse brain): 66.252 fold
KTINGSGSPHAKAQNHQT |  |  |  |  |  |  |  |  |  |  |  |  |  |  | 50.667 fold | 0.211 fold | 0.140 fold | 0.090 fold | 0.101 fold | 0.051 fold | Fold Enrichment relative to AAV9, Brain (Mouse) ([2]; mouse brain): 80.603 fold
KTINGSGSPHGWVQNQQT | 97.122 fold | 0.000 fold | 0.000 fold | 1.975 fold | 1.240 fold | 0.000 fold | 290.720 fold | 0.000 fold | 97.122 fold | 0.000 fold | 1.975 fold | 1.240 fold | 0.000 fold | 290.720 fold |  |  |  |  |  |  | 
KTINGSGSPHSKAGDSQT |  |  |  |  |  |  |  |  |  |  |  |  |  |  | 50.457 fold | 0.614 fold | 0.236 fold | 0.071 fold | 1.062 fold | 0.008 fold | Fold Enrichment relative to AAV9, Brain (Mouse) ([2]; mouse brain): 74.355 fold
KTINGSGSPHSKAHNQQR |  |  |  |  |  |  |  | 0.562 fold | 74.272 fold | 0.486 fold | 0.057 fold | 0.956 fold | 0.047 fold | 107.301 fold |  |  |  |  |  |  | 
KTINGSGSPHSKAHVRQT | 119.798 fold | 0.000 fold | 0.000 fold | 1.039 fold | 0.694 fold | 0.262 fold | 165.590 fold | 0.000 fold | 119.798 fold | 0.000 fold | 1.039 fold | 0.694 fold | 0.262 fold | 165.590 fold |  |  |  |  |  |  | 
KTINGSGSPHSKAIGKQT |  |  |  |  |  |  |  |  |  |  |  |  |  |  | 56.158 fold | 0.000 fold | 0.000 fold | 0.088 fold | 0.887 fold | 0.000 fold | Fold Enrichment relative to AAV9, Brain (Mouse) ([2]; mouse brain): 110.132 fold

Source: patent US20260250318A1, “COMPOSITIONS AND METHODS FOR CROSSING THE BLOOD BRAIN BARRIER” (VOYAGER THERAPEUTICS, INC., priority 2022, published 2026)
